The record followed here is US20230133958A1, “COMPOUNDS USEFUL IN MODULATING EGFR AND PI3K” (Mekanistic Therapeutics LLC, priority 2021, published 2023).

The series is described as follows: Metabolic stability in mouse liver microsomes. In kind it is in vitro ADME. The conditions noted are these: Mouse Liver Microsome (MLM). The protocol:
Working solution: 5 µL of compound and control stock solution (10 mM in dimethyl sulfoxide (DMSO)) were diluted with 495 µL of acetonitrile (ACN) (intermediate solution concentration: 100 µM, 99% ACN)
NADPH Cofactor Preparation: NADPH powder: β-Nicotinamide adenine dinucleotide phosphate reduced form, tetrasodium salt; NADPH 4 Na. The appropriate amount of NADPH powder was weighed and diluted into a 10 mM MgCl2 solution (working solution concentration: 10 unit/mL; final concentration in reaction system: 1 unit/mL)
Liver Microsomes Preparation: The appropriate concentrations of microsome working solutions were prepared in 100 mM potassium phosphate buffer. Cold (4° C.) acetonitrile (ACN) containing 200 ng/mL tolbutamide and 200 ng/mL labetalol as internal standards (IS) was used as the stop solution
Assay Procedure: Pre-warm empty ‘Incubation’ plates T60 and NCF60 for 10 minutes. Dilute liver microsomes to 0.56 mg/mL in 100 mM phosphate buffer. Transfer 445 µL microsome working solutions (0.56 mg/mL) into pre-warmed ‘Incubation’ plates T60 and NCF60, Then pre-incubate ‘Incubation’ plates T60 and NCF60 for 10 min at 37° C. with constant shaking. […]
The biological stability of the compounds of the invention can be measured by determining its ½ life in the presence microsomes. […]

Usually half-life stands for the time needed for the level to fall by half in the phase considered. A high value points to slow decline.

The compound `CS(=O)(=O)Nc1cc(-c2ccc3ncnc(Nc4cccc(Cl)c4F)c3c2)cnc1Cl` [Compound 6, N-[2-chloro-5-[4-(3-chloro-2-fluoro-anilino)quinazolin-6-yl]-3-pyridyl] methanesulfonamide] displayed a half-life at 1 µM of 10 to 100 min.
